Assay results reported in patent publication US6503698B1, “Cryopreservation of swine embryos” (The United States of America as represented by the …, priority 2000, dated 2003).
Marks after values point to notes of the source that are not given here.

Tested on: swine embryos
Test: Progressive development in vitro of swine embryos after cryopreservation by vitrification under the influence of microfilament stabilizer cytochalasin-b
Assay type: cell-based
Settings: for % dev (progressive development in vitro after vitrification) / dev (number of embryos developed in vitro after vitrification): + cytochalasin-b
Experimental: Cyto-b is added to the medium for MF depolymerization. Studies were carried out which documented microfilament (MF) alterations during swine embryo vitrification (Dobrinsky et al. 2000, supra).
Developmental appraisals of the centrifuged cryopreserved embryos were carried out both in vitro and in vivo. For in vitro studies, morulae/blastocysts were cultured for 72 hours post-treatment. After culture, embryos were morphologically evaluated for their developmental progression. […] Since all morulae would have to develop into
Embryos were vitrified as described by Dobrinsky and Johnson (supra) in vitrification medium [6.5M glycerol, 6% bovine serum albumin-V (BSA-V; Sigma Chemical Co., St. Louis, Mo.)]. Prior to cryopreservation, for microfilament depolymerization, embryos were incubated at 39° C. in 5% CO2 and air, 95% humidity for 30-45 min in culture medium containing 7.5 μg/ml cyto-b (Sigma Chemical co., supra; stock=5 mg/ml 95% food grade EtOH). Following incubation in cyto-b, embryos were removed from culture and washed 3 times in 2 ml handling medium with cyto-b for 5 min and then equilibrated in 1 ml handling medium containing 6% BSA-V and cyto-b for 5 min. Embryos were then washed in vitrification equilibration medium (25% glycerol v/v, 6% BSA-V) containing cyto-b, then placed in 20 μl of vitrification equilibration medium containing cyto-b in a 1.5-ml microcentrifuge tube. The tube was placed and counterbalanced in an Eppendorf 5415 microcentrifuge and centrifuged for 13 min at 13,000 rpm. During centrifugation, embryos were dehydrated and equilibrated with glycerol. Total time in vitrification equilibration medium was about 20 min, including the centrifugation time.

## C=C1[C@@H](C)[C@H]2[C@H](Cc3ccccc3)NC(=O)[C@]23OC(=O)/C=C/[C@H](O)CCC[C@@H](C)C/C=C/[C@H]3[C@@H]1O [Cytochalasin-b]
HB1 = hatched blastocysts <400 μm diameter
  % dev (progressive development in vitro after vitrification): 90^c;z %
HB1 = hatched blastocysts <400 μm diameter, n 48
  dev (number of embryos developed in vitro after vitrification): 43
HB2 = hatched blastocysts >400 μm diameter
  % dev (progressive development in vitro after vitrification): 41%
HB2 = hatched blastocysts >400 μm diameter, n 22
  dev (number of embryos developed in vitro after vitrification): 9
MB = morulae/early blastocysts
  % dev (progressive development in vitro after vitrification): 6^a %
MB = morulae/early blastocysts, n 17
  dev (number of embryos developed in vitro after vitrification): 1
XB = expanded blastocysts
  % dev (progressive development in vitro after vitrification): 60^b;z %
XB = expanded blastocysts, n 25
  dev (number of embryos developed in vitro after vitrification): 15
Expanded and hatched blastocysts, versus control without cyto-b
  survival and development of expanded and hatched blastocysts after vitrification: significantly (p<0.05) improved survival and development
morulae/early blastocysts, versus control without cyto-b
  morula/early blastocyst viability after vitrification: did not appear to improve
